Key:
galectin-3 = target: T1, galectin-3 (Homo sapiens, UniProt P17931); test: Galectin-3 activity ELISA assay: inhibition of galectin-3 binding to immobilized Galβ1-3GlcNAc polymer; conditions: inhibition of galectin-3 binding to Galβ1-3GlcNAc polymer, average (± standard deviation) where assayed more than once
T1 construct: purchased IBL IBATGP0414
Description: An inhibition assay may be used to screen for antagonists of galectin-3. For example, an assay may be performed to characterize the capability of a compound described herein to inhibit interaction of galectin-3 with a Galβ1-3GlcNAc carbohydrate structure. The inhibition assay may be a competitive binding assay, which allows the determination of IC50 values. By way of example, a Galβ1-3GlcNAc polymer may be immobilized onto a matrix; a composition may be added to reduce nonspecific binding; the immobilized Galβ1-3GlcNAc polymer may be contacted with the candidate compound in the presence of galectin-3 group under conditions and for a time sufficient to permit galectin-3 to bind to the immobilized Galβ1-3GlcNAc polymer; the immobilized Galβ1-3GlcNAc polymer may be washed; and the amount of galectin-3 bound to the immobilized Galβ1-3GlcNAc polymer may be detected. Variations of such steps can be readily and routinely accomplished by a person of ordinary skill in the art.
Galectin-3 antagonists were evaluated for their ability to inhibit binding of galectin-3 to a Galβ1-3GlcNAc carbohydrate structure. The detailed protocol was as follows. A 1 μg/mL suspension of a Galβ1-3GlcNAcβ1-3Galβ1-4GlcNAcβ-PAA-biotin polymer (Glycotech, catalog number 01-096) was prepared. A 100 μL aliquot of the polymer was added to the wells of a 96-well streptavidin-coated plate (R&D Systems, catalog number CP004). A 100 μL aliquot of 1× Tris Buffered Saline (TBS, Sigma, catalog number T5912-10X) was added to control wells. The polymer was allowed to bind to the streptavidin-coated wells for 1.5 hours at room temperature. The contents of the wells were discarded, and 200 μL of 1×TBS containing 1% bovine serum albumin (BSA) was added to each well as a blocking reagent and the plate was kept at room temperature for 30 minutes. The wells were washed three times with 1×TBS containing 0.1% BSA. A serial dilution of test compounds was prepared in a separate V-bottom plate (Corning, catalog number 3897). A 75 μL aliquot of the highest concentration of the compound to be tested was added to the first well in a column of the V-bottom plate, then 15 μL were serially transferred into 60 μL 1×TBS through the remaining wells in the column to generate a 1 to 5 serial dilution. A 60 μL aliquot of 2 μg/mL galectin-3 (IBL, catalog number IBATGP0414) was added to each well in the V-bottom plate. A 100 μL aliquot of the galectin-3 test compound mixture was transferred from the V-bottom plate into the assay plate containing the Galβ1-3GlcNAc polymer. Four sets of control wells in the assay plate were prepared in duplicate containing 1) both Galβ1-3GlcNAc polymer and galectin-3, 2) neither the polymer nor galectin-3, 3) galectin-3 only, no polymer, or 4) polymer only, no galectin-3. The plate was gently rocked for 1.5 hours at room temperature. The wells were washed four times with TBS/0.1% BSA. A 100 μL aliquot of anti-galectin-3 antibody conjugated to horse radish peroxidase (R&D Systems, from DGAL30 kit) was added to each well, and the plate was kept at room temperature for 1 hour. The wells were washed four times with TBS/0.1% BSA. A 100 μL aliquot of TMB substrate solution was added to each well. The TMB substrate solution was prepared by making a 1:1 mixture of TMB Peroxidase Substrate (KPL, catalog number 5120-0048) and Peroxidase Substrate Solution B (KPL, catalog number 5120-0037). The plate was kept at room temperature for 10 to 20 minutes. The color development was stopped by adding 100 uL 10% phosphoric acid (RICCA Chemical Co., catalog number 5850-16). The absorbance at 450 nm (A450) was measured using a FlexStation 3 plate reader (Molecular Devices). Plots of A450 versus test compound concentration and IC50 determinations were made using GraphPad Prism 6. The number of assays run (n) for each compound is recorded in the following table.

[1] = target: T2, carbohydrate recognition domain of human galectin-3 (Galectin-3-CRD) (Homo sapiens, UniProt P17931); test: Galectin-3 activity microscale thermophoresis assay; assay type: binding; conditions: label-free MST, 20 nM galectin-3-CRD; average of all assays (± standard deviation), each assay in triplicate
T2 construct: The carbohydrate recognition domain of human galectin-3 (Servesto Galectin-3-CRD) was diluted; purchased Servesto
T2 sequence (P17931 118-248 limits assumed): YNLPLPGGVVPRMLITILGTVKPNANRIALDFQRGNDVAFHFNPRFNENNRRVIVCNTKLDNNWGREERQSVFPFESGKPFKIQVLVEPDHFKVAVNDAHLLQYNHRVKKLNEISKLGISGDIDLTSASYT
Description: The carbohydrate recognition domain of human galectin-3 (Servesto Galectin-3-CRD) was diluted with PBS+0.1% F127 to 40 nM. Separately, a 40 uM stock of Compound 45 in DMSO was diluted down to 4 uM in PBS+0.1% F127 and serially diluted in sixteen steps using a dilution factor of 1 to 2 in 10% DMSO+PBS+0.1% F127. To each sample in the serial dilution of Compound 45, 10 ul of 40 nM Galectin-3-CRD was added, yielding final concentrations of 20 nM galectin-3-CRD and 5% DMSO+PBS+0.1% F127. NT.LabelFree Zero background Standard Treated Capillaries were filled with the prepared solutions then loaded into the Monolith NT Label-Free MST instrument. The reaction was measured with 100% excitation power of LED and medium (40%) MST power. Binding curves and Kd values were generated using MO affinity analysis. Each assay was run in triplicate. Some compounds were subjected to more than one assay run in triplicate.

T1 sequence (P17931 whole entry): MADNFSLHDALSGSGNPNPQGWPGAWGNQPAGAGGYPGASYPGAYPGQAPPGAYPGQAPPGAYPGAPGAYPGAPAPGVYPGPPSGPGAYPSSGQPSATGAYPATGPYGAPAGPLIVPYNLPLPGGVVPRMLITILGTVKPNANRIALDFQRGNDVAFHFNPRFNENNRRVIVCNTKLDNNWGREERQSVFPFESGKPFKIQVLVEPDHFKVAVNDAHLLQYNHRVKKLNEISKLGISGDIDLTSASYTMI

Row | SMILES | IC50 (galectin-3) | Kd [1]
1 | COC1C(n2cc(-c3cc(F)c(F)c(F)c3)nn2)[C@@H](O)C(CO)O[C@H]1[C@H](OCc1ccc(Br)cc1)C(=O)OC(C)C (stereo partly drawn) [Compound 43] | 0.103 µM | 0.012 µM
2 | [2H]C([2H])([2H])OC1C(n2cc(-c3cc(F)c(F)c(F)c3)nn2)[C@@H](O)C(CO)O[C@H]1[C@H](OCc1ccc(Cl)c(F)c1)C(=O)NC(C)C (stereo partly drawn) [Compound 90, reference compound] | 1.19 µM | 0.025 µM
3 | CCNC(=O)[C@@H](OCc1ccc(Br)cc1)[C@@H]1OC(CO)[C@H](O)C(n2cc(-c3cc(F)c(F)c(F)c3)nn2)C1OC (stereo partly drawn) [Compound 69] | 0.269 µM | 0.032 µM
4 | CC(C)OC(=O)[C@@H](OCc1ccc(Br)cc1)[C@@H]1OC(CO)[C@H](O)C(n2cc(-c3cc(F)c(F)c(F)c3)nn2)C1O (stereo partly drawn) [Compound 27] | 0.173 µM | 0.026 µM
5 | [2H]C([2H])([2H])OC1C(n2cc(-c3cc(F)c(F)c(F)c3)nn2)[C@@H](O)C(CO)O[C@H]1[C@H](OCc1ccc(Br)cc1)C(=O)NC(C)(C)CO (stereo partly drawn) [Compound 74] | 0.216 µM | 0.02 µM
6 | COCCCNC(=O)[C@@H](OCc1ccc(Br)cc1)[C@@H]1OC(CO)[C@H](O)C(n2cc(-c3cc(F)cc(F)c3)nn2)C1OC (stereo partly drawn) [Compound 21] | 0.474 µM | 0.033 µM
7 | CNC(=O)[C@@H](OCc1ccc(Cl)cc1)[C@@H]1OC(CO)[C@H](O)C(n2cc(-c3cc(F)c(F)c(F)c3)nn2)C1OC (stereo partly drawn) [Compound 84, reference compound] | 0.386 µM | 0.018 µM
8 | COC1C(n2cc(-c3cc(F)c(F)c(F)c3)nn2)[C@@H](O)C(CO)O[C@H]1[C@H](OCc1ccc(Cl)cc1)C(=O)OC(C)C (stereo partly drawn) [Compound 87, reference compound] | 0.724 µM | 0.02 µM
9 | [2H]C([2H])([2H])OC1C(n2cc(-c3cc(F)c(F)c(F)c3)nn2)[C@@H](O)C(CO)O[C@H]1[C@H](OCc1ccc(Br)cc1)C(=O)NC([2H])(C([2H])([2H])[2H])C([2H])([2H])[2H] (stereo partly drawn) [Compound 46] | 0.228 µM | 0.0029 µM
10 | CC(C)OC(=O)[C@@H](OCc1ccc(Cl)cc1)[C@@H]1OC(CO)[C@H](O)C(n2cc(-c3cc(F)c(F)c(F)c3)nn2)C1O (stereo partly drawn) [Compound 86, reference compound] | 0.184 µM | 0.0004 µM
11 | [2H]C([2H])([2H])OC1C(n2cc(-c3cc(F)c(F)c(F)c3)nn2)[C@@H](O)C(CO)O[C@H]1[C@H](OCc1ccc(Br)cc1)C(=O)NC1CC1 (stereo partly drawn) [Compound 47] | 0.408 µM | 0.011 µM
12 | COCCCN(C)C(=O)[C@@H](OCc1ccc(Br)cc1)[C@@H]1OC(CO)[C@H](O)C(n2cc(-c3cc(F)cc(F)c3)nn2)C1OC (stereo partly drawn) [Compound 22] | 1.49 µM | 0.083 µM
13 | COC1C(n2cc(-c3cc(F)c(F)c(F)c3)nn2)[C@@H](O)C(CO)O[C@H]1[C@H](OCc1ccc(Br)cc1)C(=O)NC(C)C (stereo partly drawn) [Compound 23] | 0.271 µM | 0.0017 µM
14 | COC1C(n2cc(-c3cc(F)c(F)c(F)c3)nn2)[C@@H](O)C(CO)O[C@H]1[C@H](OCc1ccc(Cl)cc1)C(=O)N(C)C (stereo partly drawn) [Compound 83, reference compound] | 2.91 µM | 0.57 µM
15 | COCCCNC(=O)[C@@H](OCc1ccc(Br)cc1)[C@@H]1OC(CO)[C@H](O)C(n2cc(-c3cc(F)c(F)c(F)c3)nn2)C1O (stereo partly drawn) [Compound 36] | 0.204 µM | 0.014 µM
16 | [2H]C([2H])([2H])OC1C(n2cc(-c3cc(F)c(F)c(F)c3)nn2)[C@@H](O)C(CO)O[C@H]1[C@H](OCc1ccc(Br)cc1)C(=O)NC1CCC1 (stereo partly drawn) [Compound 67] | 0.153 µM | 0.0022 µM
17 | COC1C(n2cc(-c3cc(F)c(F)c(F)c3)nn2)[C@@H](O)C(CO)O[C@H]1[C@H](OCc1ccc(Cl)cc1)C(=O)NC(C)C (stereo partly drawn) [Compound 89, reference compound] | 0.427 µM | 0.07 µM
18 | [2H]C([2H])([2H])OC1C(n2cc(-c3cc(F)c(F)c(F)c3)nn2)[C@@H](O)C(CO)O[C@H]1[C@H](OCc1ccc(Br)cc1)C(=O)NC1(CO)CC1 (stereo partly drawn) [Compound 75] | 0.938 µM | 0.021 µM
19 | [2H]C([2H])([2H])OC1C(n2cc(-c3cc(F)c(F)c(F)c3)nn2)[C@@H](O)C(CO)O[C@H]1[C@H](OCc1ccc(Br)cc1)C(=O)N[C@H]1C[C@H]1F (stereo partly drawn) [Compound 65] | 0.364 µM | 0.013 µM
20 | COCCCNC(=O)[C@@H](OCc1ccc(Br)cc1)[C@@H]1OC(CO)[C@H](O)C(n2cc(-c3cc(F)cc(F)c3)nn2)C1O (stereo partly drawn) [Compound 35] | 0.391 µM | 0.021 µM
21 | [2H]C([2H])([2H])OC1C(n2cc(-c3cc(F)c(F)c(F)c3)nn2)[C@@H](O)C(CO)O[C@H]1[C@H](OCc1ccc(Br)cc1)C(=O)NC1CC(F)(F)C1 (stereo partly drawn) [Compound 66] | 0.143 µM | 0.0036 µM
22 | [2H]C([2H])([2H])OC1C(n2cc(-c3cc(F)c(F)c(F)c3)nn2)[C@@H](O)C(CO)O[C@H]1[C@H](OCc1ccc(Br)cc1)C(=O)NC1CNC1 (stereo partly drawn) [Compound 63] | 0.051 µM | 0.022 µM
23 | [2H]C([2H])([2H])OC1C(n2cc(-c3cc(F)c(F)c(F)c3)nn2)[C@@H](O)C(CO)O[C@H]1[C@H](OCc1ccc(Br)cc1)C(=O)NC(C)C (stereo partly drawn) [Compound 45] | 0.171 µM | 0.0089 µM
24 | CC(C)NC(=O)[C@@H](OCc1ccc(Br)cc1)[C@@H]1OC(CO)[C@H](O)C(n2cc(-c3cc(F)c(F)c(F)c3)nn2)C1O (stereo partly drawn) [Compound 44] | 0.291 µM | 0.012 µM
25 | [2H]C([2H])([2H])OC1C(n2cc(-c3cc(F)c(F)c(F)c3)nn2)[C@@H](O)C(CO)O[C@H]1[C@H](OCc1ccc(Br)cc1)C(=O)NC1COC1 (stereo partly drawn) [Compound 64] | 0.236 µM | 0.018 µM
26 | CNC(=O)[C@@H](OCc1ccc(Br)cc1)[C@@H]1OC(CO)[C@H](O)C(n2cc(-c3cc(F)c(F)c(F)c3)nn2)C1OC (stereo partly drawn) [Compound 19] | 0.448 µM | 0.023 µM
27 | [2H]C([2H])([2H])OC1C(n2cc(-c3cc(F)c(F)c(F)c3)nn2)[C@@H](O)C(CO)O[C@H]1[C@H](OCc1ccc(Br)c(F)c1)C(=O)NC(C)C (stereo partly drawn) [Compound 61] | 0.771 µM | 0.01 µM
28 | COC1C(n2cc(-c3cc(F)c(F)c(F)c3)nn2)[C@@H](O)C(CO)O[C@H]1[C@H](OCc1ccc(Br)cc1)C(=O)NC(CF)CF (stereo partly drawn) [Compound 72] | 0.197 µM | 0.009 µM
29 | COC1C(n2cc(-c3cc(F)c(F)c(F)c3)nn2)[C@@H](O)C(CO)O[C@H]1[C@H](OCc1ccc(Br)cc1)C(=O)N[C@@H](C)CF (stereo partly drawn) [Compound 71] | 0.526 µM | 0.009 µM
30 | [2H]C([2H])([2H])OC1C(n2cc(-c3cc(F)c(F)c(F)c3)nn2)[C@@H](O)C(CO)O[C@H]1[C@H](OCc1ccc(Br)cc1)C(=O)N(C)C (stereo partly drawn) [Compound 68] | 0.709 µM | 0.087 µM

From patent US20240270724A1, “GALECTIN-3 INHIBITING C-GLYCOSIDES” (GLYCOMIMETICS, INC., priority 2021, published 2024)
